Values after ≈ are worked out from the molar mass of the structure shown.
Assays:
[1] = tested on: female Syrian golden hamsters; assay: anti-fertility activity in pregnant hamsters; assay type: in vivo, hamster (Syrian golden); settings: Mesocricetus auratus, sc, 5 mg/kg s.c., day 4 through day 8, autopsy day 14 of pregnancy, read-out: treated animals in which the number of live fetuses was either eliminated or severely reduced
Protocol: The anti-fertility activity of these compounds in rats was also confirmed in other species including mice, hamsters, rabbits, dogs, monkeys and baboons. With hamsters, the same criteria and conditions are followed as for testing in rats, with the exception that the animals (female Syrian golden hamsters weighing 100 to 130 g) are treated on day 4 through day 8 with 5 mg/kg s.c. of the test compound and are autopsied on day 14 of pregnancy.

[2] = tested on: carrageenin induced edema; assay: carrageenin induced edema of the rat hind paw (anti-inflammatory); assay type: in vivo; settings: rats
Protocol: The anti-inflammatory activity of some representative compounds of formula I as hereinbefore described was evidenced by means of the carrageenin tests in rats. This test is carried out in the hind paw of the rat which paw has been inflammed by injection of carrageenin according to the technique described by C.A. Winter and coworker, Proc. Soc. Exptl. Biol. Med. III, 554 (1962). In following Table I are reported the percent inhibition of the carrageenin induced edema at the dose level indicated for each compound.

[3] = tested on: female Sprague-Dawley rats; assay: anti-fertility activity in pregnant rats; assay type: in vivo, rat (Sprague-Dawley)
Protocol: Representative experiments for assessing anti-fertility activity are carried out with female Sprague-Dawley rats weighing 200-230 g. They were mated with proven fertile males. The presence of sperm in the vagina of these animals is evidence of mating and is also considered as being day one of pregnancy. Pregnancy is confirmed at the time of autopsy by the presence of fetuses or implantation sites in the uterus. Even when animals abort the fetuses, implantation scars remain as evidence that the animal had been pregnant.
[…] These animals were autopsied on day 16 of pregnancy and the uteri were examined for evidence of pregnancy and termination of pregnancy such as implantation sites, live or resorbing fetuses and hemorrage as well as abnormalities of the uterus, placenta or fetuses. A compound is considered to be active if there is a reduction of live fetuses in at least 60% of the treated animals and the presence of implantation sites proves the animals to have been pregnant.

[4] = tested on: conditioned rats; assay: secondary conditioned avoidance response test (anti-anxiety); assay type: in vivo, rat
Protocol: The CNS depressant properties of compounds hereinbefore described were investigated according to the Irwin method and in particular the anti-anxiety effect was evaluated on the basis of the secondary conditioned avoidance response test. A specific anti-anxiety effect was evidenced by administering to conditioned rats doses of 15-60 mg/kg i.p. of representative said compounds of the invention.
Following Table II indicates the ratio of the rats which are deconditioned after administration of predetermined amounts of said representative compounds: […]

[5] = toxicity, LD50 i.p. in mice; settings: mouse, in vivo, ip
[6] = tested on: baboons; assay: anti-fertility test in baboons; assay type: in vivo, baboon
[7] = tested on: pain threshold of the rats; assay: analgesic activity, Randall and Selitto procedure, pain threshold; assay type: in vivo, rat; settings: 50 mg/kg i.p.
Protocol: The analgesic activity of representative compounds as hereinbefore described was assessed in rats by following essentially the procedure described by L. O. Randall and J. J. Selitto, Arch. Int. Pharmacodyn., 111, 409 (1957).

[8] = tested on: Mycobacterium tubercolosis H37 Rv; assay: minimal inhibitory concentration, bacterial growth; assay type: cell-based; settings: H37RV, read-out: M.I.C. (minimal inhibitory concentration)
Protocol: In evaluating the antimicrobial utility of representative compounds as hereinbefore described, the minimal concentration of substance inhibiting bacterial growth (M.I.C.=minimal inhibitory concentration) was determined.

Compound: Clc1ccc2c(c1)Cn1nc(-c3ccccc3)nc1-2 [7-Chloro-2-phenyl-5H-s-triazolo[5,1-a]isoindole]
- responders at 5 mg/kg [1]: ≥ 60%

Compound: c1ccc(COc2cccc(-c3nc4n(n3)Cc3ccccc3-4)c2)cc1 [2-(m-Benzyloxyphenyl)-5H-s-triazolo[5,1-a]isoindole]
- responders at 5 mg/kg [1]: ≥ 60%

Compound: O=C(Nc1nc2n(n1)Cc1ccccc1-2)c1ccccc1 [f, 2-benzoylamino-5H-s-triazolo[5,1-a]isoindole]
- Per Cent Inhibition of the Edema ([2]; 100 mg/Kg p.o.): 28 Per Cent

Compound: CCCOc1cccc(-c2nc3n(n2)Cc2ccccc2-3)c1 [2-(m-Propoxyphenyl)-5H-s-triazolo[5,1-a]isoindole]
- % Animals Aborting ([3]; 1 mg/kg/day s.c.): 20%
- % Animals Aborting ([3]; 1.25 mg/kg/day s.c.): 60%
- % Animals Aborting ([3]; 2.5 mg/kg/day s.c.): 77.8%
- % Animals Aborting ([3]; 5 mg/kg/day s.c.): 100%
- responders at 5 mg/kg [1]: ≥ 60%

Compound: Clc1cccc(-c2nc3n(n2)Cc2ccccc2-3)c1 [2-(m-Chlorophenyl)-5H-s-triazolo[5,1-a]isoindole]
- responders at 5 mg/kg [1]: ≥ 60%

Compound: CCCCc1nc2n(n1)Cc1ccccc1-2 [a, 2-n-butyl-5H-s-triazolo[5,1-a]isoindole]
- Per Cent Inhibition of the Edema ([2]; 100 mg/Kg p.o.): 28 Per Cent

Compound: COc1cccc(-c2nc3n(n2)Cc2cc(OC)ccc2-3)c1 [7-Methoxy-2-(m-methoxyphenyl)-5H-s-triazolo[5,1-a]isoindole]
- responders at 5 mg/kg [1]: ≥ 60%

Compound: Cc1cccc(-c2nc3n(n2)Cc2ccccc2-3)c1 [2-(m-Tolyl)-5H-s-triazolo[5,1-a]isoindole]
- responders at 5 mg/kg [1]: ≥ 60%

Compound: CC(=O)N(C(C)=O)c1nc2n(n1)Cc1ccccc1-2 [d, 2-diacetylamino-5H-s-triazolo[5,1-a]isoindole]
- Per Cent Inhibition of the Edema ([2]; 50 mg/Kg p.o.): 34 Per Cent
- Per Cent Inhibition of the Edema ([2]; 100 mg/Kg p.o.): 53 Per Cent

Compound: Nc1nc2n(n1)Cc1ccccc1-2 [2-Amino-5H-s-triazolo[5,1-a]isoindole]
- Deconditioned / treated ([4]; 30 mg/kg i.p.): 8/10
- LD50 [5]: 600 mg/kg

Compound: COc1ccc2c(c1)-c1nc(-c3ccccc3)nn1C2 [8-Methoxy-2-phenyl-5H-s-triazolo[5,1-a]isoindole]
- responders at 5 mg/kg [1]: ≥ 60%

Compound: c1ccc2c(c1)Cn1nc(-c3ccc4c(c3)OCO4)nc1-2 [2-(3,4-Methylenedioxyphenyl)-5H-s-triazolo[5,1-a]isoindole]
- % Animals Aborting ([3]; 1 mg/kg/day s.c.): 0%
- % Animals Aborting ([3]; 1.25 mg/kg/day s.c.): 25%
- % Animals Aborting ([3]; 2.5 mg/kg/day s.c.): 66.7%
- % Animals Aborting ([3]; 5 mg/kg/day s.c.): 100%
- responders at 5 mg/kg [1]: ≥ 60%

Compound: Fc1cccc(-c2nc3n(n2)Cc2ccccc2-3)c1 [2-(m-Fluorophenyl)-5H-s-triazolo[5,1-a]isoindole]
- responders at 5 mg/kg [1]: ≥ 60%

Compound: FC(F)(F)c1cccc(-c2nc3n(n2)Cc2ccccc2-3)c1 [2-(m-Trifluoromethylphenyl)-5H-s-triazolo[5,1-a]isoindole]
- responders at 5 mg/kg [1]: ≥ 60%

Compound: Oc1cccc(-c2nc3n(n2)Cc2ccccc2-3)c1 [2-(m-Hydroxyphenyl)-5H-s-triazolo[5,1-a]isoindole]
- responders at 5 mg/kg [1]: ≥ 60%

Compound: CC(=O)Nc1nc2n(n1)Cc1ccccc1-2 [c, 2-acetamido-5H-s-triazolo[5,1-a]isoindole]
- Per Cent Inhibition of the Edema ([2]; 50 mg/Kg p.o.): 35 Per Cent
- Per Cent Inhibition of the Edema ([2]; 100 mg/Kg p.o.): 54 Per Cent

Compound: Clc1ccc(-c2nc3n(n2)Cc2ccccc2-3)cc1 [2-(p-Chlorophenyl)-5H-s-triazolo[5,1-a]isoindole]
- responders at 5 mg/kg [1]: ≥ 60%

Compound: c1ccc(-c2nc3n(n2)Cc2ccccc2-3)cc1 [2-Phenyl-5H-s-triazolo[5,1-a]isoindole]
- % Animals Aborting ([3]; 1.25 mg/kg/day s.c.): 20%
- % Animals Aborting ([3]; 2.5 mg/kg/day s.c.): 80%
- responders at 5 mg/kg [1]: ≥ 60%

Compound: Sc1nc2n(n1)Cc1ccccc1-2 [g, 2-sulfhydryl-5H-s-triazolo[5,1-a]isoindole]
- Per Cent Inhibition of the Edema ([2]; 50 mg/Kg p.o.): 39 Per Cent
- Per Cent Inhibition of the Edema ([2]; 100 mg/Kg p.o.): 49 Per Cent

Compound: Cc1nc2n(n1)Cc1ccccc1-2 [2-Methyl-5H-s-triazolo[5,1-a]isoindole]
- Deconditioned / treated ([4]; 15 mg/kg i.p.): 6/10
- Deconditioned / treated ([4]; 30 mg/kg i.p.): 7/10
- LD50 [5]: > 400 mg/kg

Compound: Clc1ccc2c(c1)-c1nc(-c3ccccc3)nn1C2 [8-Chloro-2-phenyl-5H-s-triazolo[5,1-a]isoindole]
- responders at 5 mg/kg [1]: ≥ 60%

Compound: COc1cccc(-c2nc3n(n2)Cc2ccccc2-3)c1 [2-(m-Methoxyphenyl)-5H-s-triazolo[5,1-a]isoindole]
- % Animals Aborting ([3]; 0.155 mg/kg/day s.c.): 0%
- % Animals Aborting ([3]; 0.31 mg/kg/day s.c.): 0%
- % Animals Aborting ([3]; 0.62 mg/kg/day s.c.): 38.5%
- % Animals Aborting ([3]; 1.25 mg/kg/day s.c.): 70.8%
- % Animals Aborting ([3]; 2.5 mg/kg/day s.c.): 100%
- % Animals Aborting ([3]; 5 mg/kg/day s.c.): 100%
- responders at 5 mg/kg [1]: ≥ 60%
- induced abortion [6]: induced abortion in every animal studied

Compound: COc1ccc(-c2nc3n(n2)Cc2ccccc2-3)cc1 [2-(p-Methoxyphenyl)-5H-s-triazolo[5,1-a]isoindole]
- responders at 5 mg/kg [1]: ≥ 60%

Compound: c1cncc(-c2nc3n(n2)Cc2ccccc2-3)c1 [2-(3-pyridyl)-5H-s-triazolo[5,1-aisoindole]
- increase of the pain threshold of the rats [7]: 70%
- toxic effect [7]: without provoking any toxic effect

Compound: COc1cccc(-c2nc3n(n2)Cc2ccc(OC)cc2-3)c1 [8-Methoxy-2-(m-methoxyphenyl)-5H-s-triazolo[5,1-a]isoindole]
- % Animals Aborting ([3]; 2.5 mg/kg/day s.c.): 57.1%
- % Animals Aborting ([3]; 5 mg/kg/day s.c.): 100%
- responders at 5 mg/kg [1]: ≥ 60%

Compound: CCOc1cccc(-c2nc3n(n2)Cc2ccccc2-3)c1 [2-(m-Ethoxyphenyl)-5H-s-triazolo[5,1-a]isoindole]
- % Animals Aborting ([3]; 1 mg/kg/day s.c.): 33.3%
- % Animals Aborting ([3]; 1.25 mg/kg/day s.c.): 62.5%
- % Animals Aborting ([3]; 2.5 mg/kg/day s.c.): 85.7%
- % Animals Aborting ([3]; 5 mg/kg/day s.c.): 100%
- responders at 5 mg/kg [1]: ≥ 60%

Compound: COc1cccc(-c2nc3n(n2)Cc2cc(OC)c(OC)cc2-3)c1 [7,8-Dimethoxy-2-(m-methoxyphenyl)-5H-s-triazolo[5,1-a]isoindole]
- responders at 5 mg/kg [1]: ≥ 60%

Compound: CCOC(=O)NC(=S)Nc1nc2n(n1)Cc1ccccc1-2 [2-carbethoxythioureido-5H-s-triazolo[5,1-a]isoindole]
- MIC [8]: 5 µg/mL (≈ 16.5 µM)

Compound: COc1cccc(-c2nc3n(n2)Cc2ccc(Cl)cc2-3)c1 [8-Chloro-2-(m-methoxyphenyl)-5H-s-triazolo[5,1-a]isoindole]
- responders at 5 mg/kg [1]: ≥ 60%

Compound: Cc1ccc(-c2nc3n(n2)Cc2ccccc2-3)cc1 [2-(p-Tolyl)-5H-s-triazolo[5,1-a]isoindole]
- responders at 5 mg/kg [1]: ≥ 60%

Compound: Fc1ccc(-c2nc3n(n2)Cc2ccccc2-3)cc1 [2-(p-Fluorophenyl)-5H-s-triazolo[5,1-a]isoindole]
- responders at 5 mg/kg [1]: ≥ 60%

Compound: NC(=O)Nc1nc2n(n1)Cc1ccccc1-2 [e, 2-ureido-5H-s-triazolo[5,1-a]isoindole]
- Per Cent Inhibition of the Edema ([2]; 100 mg/Kg p.o.): 29 Per Cent

Compound: CN(C)c1cccc(-c2nc3n(n2)Cc2ccccc2-3)c1 [2-(m-Dimethylaminophenyl)-5H-s-triazolo[5,1-a]isoindole]
- responders at 5 mg/kg [1]: ≥ 60%

Compound: COc1cccc(-c2nc3n(n2)Cc2cc(Cl)ccc2-3)c1 [7-Chloro-2-(m-methoxyphenyl)-5H-s-triazolo[5,1-a]isoindole]
- responders at 5 mg/kg [1]: ≥ 60%

— US4007276A, “Triazolo isoindole derivatives” (Gruppo Lepetit, S.p.A., priority 1973, dated 1977)
